Measured values taken from patent publication US6949516B2, “Dipeptide apoptosis inhibitors and the use thereof” (Cytovia, Inc., priority 1997, dated 2005).

Key:
Factor Xa = test: Protease inhibition, Factor Xa; assay type: biochemical
Description: (§1) Table I lists the IC50 of Cbz-Val-Asp(OMe)-CH2F and Cbz-Val-Asp-CH2F (free acid) for CPP32 and other proteases.

ICE = target: T1, ICE (Homo sapiens, UniProt P29466); test: Fluorometric enzyme assay, ICE; assay type: biochemical; settings: recombinant ICE
T1 construct: made in house; host or cells: Sf9 insect cells, baculovirus vector
T1 sequence (P29466 120-297 limits assumed): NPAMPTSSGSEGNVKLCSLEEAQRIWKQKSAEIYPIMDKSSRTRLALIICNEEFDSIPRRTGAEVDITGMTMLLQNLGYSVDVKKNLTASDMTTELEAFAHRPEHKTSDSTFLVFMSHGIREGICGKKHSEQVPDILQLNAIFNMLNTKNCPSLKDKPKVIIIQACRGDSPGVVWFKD
Experimental: (§2) The activities of Cbz-Val-Asp(OMe)-CH2F and Cbz-Val-Asp-CH2F (free acid) as inhibitors of CPP32, ICE and cathepsin B were measured in a fluorometric enzyme assay. Recombinant CPP32 protein and ICE protein were prepared by expressing DNA clones encoding these enzymes in an insect host cell (sf9 cells) using baculovirus as the vector. See, Webb, N.R. et al., “Expression of proteins using recombinant Baculovirus,” Techniques 2:173-188 (1990). Preparations of native cathepsin were acquired from a commercial source. Enzyme activity was measured using synthetic peptide substrates attached to a fluorogenic leaving group. Cleavage of the synthetic substrate by the enzyme results in a fluorescent signal which is read in a spectrofluorometer or in a fluorometric microtiter plate reader.

HeLa cells = test: Cell death assay with HeLa cells, quantitative (calcein AM), TNF-α/CHX challenge; assay type: cell-based
Experimental: The cytoprotective properties of Cbz-Val-Asp(OMe)CH2F were tested using HeLa cells challenged with tumor necrosis factor-alpha (TNF-α) and cycloheximide (CHX). This is a well-characterized cell culture model of apoptosis which is commonly used to analyze anti-apoptotic agents. Two types of experiments were performed: a qualitative assessment of cell death by visualization of the cells using phase contrast microscopy; and a quantitative assessment of cell death using the fluorescent dye calcein AM.
For quantitative assays, the degree of cell survival in the presence of test compounds is analyzed quantitatively using the indicator dye calcein AM. This dye is taken up and converted to a fluorescent derivative by living cells; the amount of activated dye in each well can then be assayed in a fluorometric plate reader and the degree of fluorescence is used as a measure of the number of surviving cells. For these assays, HeLa cells are seeded in 48-well plates at a density of 25,000 cells per well in 0.4 mL of Minimal Essential Medium containing 2 mM glutamine and 10% fetal bovine serum. 24 hours later the plating medium is removed and 0.5 mL of fresh medium containing test compound at various concentrations is added. The cells are pre-incubated with test compound for 2 hours at 37° C. in a CO2 incubator and then TNF-α and CHX are added at final concentrations of 25 ng/mL and 30 μg/mL, respectively. After a 24 hour incubation period, the cultures are washed twice with serum-free, phenol red-free Ham's F12 to remove dead cells and 125 μL of Ham's F12 containing 8 μM calcein AM is added. […] The data are expressed as “Percent Control,” which is calculated by the following equation: Percent Control=(Calcein AM Signal in the Presence of Test Compound+TNF-α and CHX/(Calcein AM Signal in the Presence of CHX Only)×100% The use of CHX-treated cultures as controls, rather than untreated cultures, allows one to correct for the cytostatic effects of CHX. However, because CHX by itself is also a mild inducer of apoptosis in HeLa cells, strong anti-apoptotic drugs will give a Percent Control value greater than 100%.
Quantitative experiments using calcein AM, as described above, corroborate the results obtained by microscopic examination. FIGS. 4 and 5 illustrate the results of two such experiments where the cytoprotective properties of Cbz-Val-Asp(OMe)-CH2F (a) were compared to BOC-Asp(OMe)-CH2F (b) (FIG. 5) and Cbz-Asp(OMe)-Glu(OMe)-Val-Asp(OMe)-CH2F (SEQ ID NO:1) (c) (FIG. 4) at three concentrations (0.5, 5 and 50 μM). […] By contrast, Cbz-Val-Asp(OMe)-CH2F (a) is as effective a cytoprotectant at 0.5 μM as Cbz-Asp(OMe)-Glu(OMe)-Val-Asp(OMe)-CH2F (SEQ ID NO:1) […] is at 50 μM (FIG. 4).
In order to determine the effect of Cbz-Val-Asp(OMe)-CH2F at low doses, HeLa cells were treated with a range of concentrations from 0.05 μM to 1 μM.

CPP32 = target: T2, CPP32 (Homo sapiens, UniProt P42574); test: Fluorometric enzyme assay, CPP32; assay type: biochemical; settings: recombinant CPP32, 37° C., 30 minutes
T2 construct: made in house; host or cells: Sf9 insect cells, baculovirus vector
T2 sequence (P42574 29-175 limits assumed): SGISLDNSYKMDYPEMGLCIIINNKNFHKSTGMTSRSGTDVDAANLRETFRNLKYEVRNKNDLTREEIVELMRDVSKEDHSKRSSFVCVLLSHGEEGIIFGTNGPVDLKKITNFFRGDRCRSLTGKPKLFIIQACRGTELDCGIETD
Experimental: as §2
CPP32 activity was measured using the following buffer conditions: 100 mM HEPES pH 7.5, with 10% sucrose, 1% CHAPS, 5 mM glutathione, and 5 μM peptide substrate. The peptide substrate consisted of an oligomer with the sequence Asp-Glu-Val-Asp (SEQ ID NO:1) with the fluorogenic compound aminomethylcoumarin conjugated to the C-terminus. The assay for enzyme activity was typically carried out at 37° C. for 30 minutes.

Cathepsin B = target: T3, Cathepsin B (Homo sapiens, UniProt P07858); test: Fluorometric enzyme assay, cathepsin B; assay type: biochemical; settings: native cathepsin, commercial source
T3 construct: Preparations of native cathepsin were acquired from a commercial source; purchased
Experimental: as §2

Thrombin = Thrombin (Homo sapiens, UniProt P00734); test: Protease inhibition, thrombin; assay type: biochemical
Description: as §1

| Compound | IC50 (Factor Xa) [nM] | IC50 (ICE) [nM] | protection of HeLa cells from TNF-α/CHX (calcein AM) (HeLa cells; 0.5 μM) | concentration giving significant protection of HeLa cells from TNF-α/CHX (HeLa cells; range 0.05 μM to 1 μM tested) [µM] | IC50 (CPP32) [nM] | IC50 (Cathepsin B) [nM] | IC50 (Thrombin) [nM] |
| --- | --- | --- | --- | --- | --- | --- | --- |
| COC(=O)CC(NC(=O)C(NC(=O)OCc1ccccc1)C(C)C)C(=O)CF (stereo not drawn) [Cbz-Val-Asp(OMe)-CH2F, Z-Val-Asp-fmk Methyl Ester] | > 100000 | 900 | highly active | ≤ 0.25 | 1100 | 300 | > 100000 |
| CC(C)[C@H](NC(=O)OCc1ccccc1)C(=O)NC(CC(=O)O)C(=O)CF (stereo partly drawn) [Cbz-Val-Asp-CH2F, Z-Val-Asp-fmk] | > 100000 | 20 |  |  | 43 | > 10000 | > 100000 |
